Assays:
C57BL/6 mice = test: MTD studies in mice; format: in vivo
[1] = tested on: colon tissue gene expression; test: Colon tissue gene expression (RNA-Seq) in TNBS-induced colitis mice; format: in vivo; conditions: for expression of genes related to inflammatory response: vs untreated
Procedure: (§1) Method: TNBS colitis: C57BL/6 mice (20-22 grams) were fed ad lib and assigned to 4 different groups (n=8/group). After a 72 hr acclimation period the test group groups received 25 mg/kg of test compound PO (gavage) in vehicle daily. A control group received vehicle alone. After 24 hrs, mice were weighed and TNBS was injected intra-colonically using 5 cm of polyethylene (¼ inch) tubing. Mice were then treated with the test compounds and weighed daily for 4 days. Mice were sacrificed on day 4 and clinical score was assessed. Intestinal tissue for and blood were also collected. Tissues were either flash frozen and kept in −80° C. for RNA and protein isolation or placed in 10% formalin solution for future histological analysis. Blood was spun at 5K rpm for 5 min and serum was collected and kept at −20° C. for multiplex cytokine analysis.
RNA Sequencing: RNA was extracted from mouse colon tissue at Athos Therapeutics and was sent at Zymo Research or the Technology Center for Genomics & Bioinformatics at UCLA for sequencing and partial bioinformatics analysis.
Libraries for RNA-Seq were prepared with KAPA Stranded mRNA-Seq Kit. The workflow consists of mRNA enrichment and fragmentation, first strand cDNA synthesis using random priming, followed by second strand synthesis converting cDNA:RNA hybrid to double-stranded cDNA (dscDNA), and incorporates dUTP into the second cDNA strand. cDNA generation is followed by end repair to generate blunt ends, A-tailing, adaptor ligation, and PCR amplification. Different adaptors were used for multiplexing samples in one lane. Sequencing was performed on NovaSeq6000 (SP) for a PE 2×150 run. Data quality checking was done on Illumina SAV. Data de-multiplexing was performed with Illumina Bcl2fastq v 2.19.1.403 software. The reads were mapped by STAR 2.27a and read counts per gene were quantified using the mouse Ensembl Musmusculus.GRCm38.97 GTF file. In Partek Flow (Partek® Flow® software, v7.0 Copyright©. 2019 Partek Inc., St. Louis, Mo., USA) read counts were normalized by CPM +1.0E-4.
Gene differential expression analysis and downstream gene enrichment analysis was performed at Athos Therapeutics. The DESeq2 R package was used for differential expression analysis. DESeq2 FDR cutoff: 0.05, DESeq2 Log 2FC cutoff: 1 (FC cutoff: 2). Gene enrichment analysis was performed using the Enrichr) (https://maayanlab.cloud/Enrichr/enrich) and gprofiler (https://biit.cs.ut.ee/gprofiler/gost) platforms.

Naïve human CD4 T cells = test: Differentiation of naïve human CD4 T cells into FoxP3+ Tregs (flow cytometry); format: cell-based; conditions: 500 nM, 5 days; for Tregs (%): anti-CD3 and anti-CD28 100 ng/ml, CD4highFoxP3high population; for increase of the number of Tregs over untreated: baseline 3.2%
Procedure: Naïve human CD4 T cells were cultured in DMEM supplemented with 10% heat-inactivated FBS, 2 mM glutamine, 100 U/ml penicillin, 100 μg/ml streptomycin and 25 mM Hepes. Human CD4 T cells were treated with anti-CD3 and anti-CD28 (100 ng/ml) together with small molecule compounds (500 nM) for 5 days. FoxP3 and CD4 positive cells were stained and imaged in a BD LSRII flow cytometer. The gated area represents the percentage CD4^highFoxP3^high immune cell population. Furthermore, the same small molecule compounds were evaluated for their effects on IL17 protein levels in human CD4 T cells by using an ELISA assay (R&D systems, cat no. D1700).

[2] = tested on: C57BL/6 mice with TNBS colitis; test: TNBS colitis in C57BL/6 mice; format: in vivo; design: TNBS Efficacy / Clinical Score / Histological Score / Colon Length: key to the marks not given beside the values
Procedure: as §1, with “C57BL/6” for “Method: TNBS colitis: C57BL/6”

in vitro = conditions: PAMPA, 5 hours at RT
Text: Parallel artificial membrane permeability (PAMPA) assay is a non-cell based assay designed to predict in vivo biological membrane permeability of drugs in early stage of drug discovery. […] The Corning Gentest Pre-coated PAMPA plate system was designed by 96-well insert system with a 0.45 μm PVDF (polyvinylidene fluoride) filter plate which has been pre-coated with structured tri-layers of phospholipids (lipid/oil/lipid) and a matched receiver microplate.
Donor solutions of test compounds (300 μL, 20 μM in PBS/MeOH 90:10) were added to each well of the donor plate. 200 μL of PBS/MeOH 90:10 was added to each well of the acceptor plate. The acceptor plate was coupled with the donor plate and incubated for 5 hours at room temperature (RT) without agitation. In each plate, compounds were tested in triplicate. At the end of the incubation, drug concentration in the initial donor solution, acceptor and the donor wells were determined using LC/MS/MS. A five (5) points standard curve from 0.1 to 1000 nM for each test compound were prepared. Analyte samples were diluted to within standard curve concentration with ACN/H2O 50:50 prior analysis.
All samples were analyzed by electrospray ionization (ESI) liquid chromatograph/mass spectrometry (LC/MS) system utilizing Sciex 5500 quadropule ion trap (Qtrap) mass spectrometry with Shidmazu Nexera X2 UHPLC. The LC-MS/MS instrument monitored each of the test compound in the study based of their respective mass-to-charge (m/z) transitions and MS parameters. Chromatographic separation was achieved on Phenomenex Luna C18 column (50×2.0 mm, 3 μm particle size) by using a gradient elution: mobile phase A contains 0.1% formic acid in water and mobile phase B contains 0.1% formic acid in acetonitrile; A/B (99:1) from 0 to 1 minutes; to A/B (1:99) from 1 to 4 minutes; A/B (1:99) from 4 to 8 minutes; to A/B (99:1) from 8 to 8.20 minutes; A/B (99:1) from 8.2 to 9 minutes. The flow rate was 0.4 mL/min and the column temperature was maintained at 35° C. and autosampler temperature at 4° C. For detection, the electrospray ionization operated in the positive mode using multiple reaction monitoring (MRM).
Data acquisition, and peak integrations were obtained by Analyst® Version 1.7.1 (Sciex) operating with Windows® (Microsoft). The standard curve regressions and sample concentrations were generated and calculated by Analyst®. Concentrations in the sample solutions were determined based on the measured peak area ratios from the response of the analyte to the internal standard with reference to the standard calibration curve. All sample calculations were calculated using a linear regression with 1/x^2 weighting (where x is the concentration of given calibration standard level).
Permeability of the test compounds was calculated using the following formula:
The permeability of compounds was evaluated with the parallel artificial membrane permeation assay (PAMPA) as an in vivo model of passive diffusion across a porous filter coated with a lipid/oil/lipid tri-layer artificial membrane. […] Donor solutions of test compounds (300 μL, 20 μM in PBS/MeOH 90:10) were added to each well of the donor plate. 200 μL of PBS/MeOH 90:10 was added to each well of the acceptor plate. The acceptor plate was coupled with the donor plate and incubated for 5 hours at room temperature (RT) without agitation. In each plate, compounds were tested in triplicate. At the end of the incubation, drug concentration in the initial donor solution, acceptor and the donor wells were determined using LC/MS/MS. Permeability of test compounds was calculated based on the formula described in the General Procedures above. The PAMPA permeability classification criteria are categorized into three (3) classes with a high (Pe≥1.5×10−6 cm/s), intermediate (5.5×10−8<Pe<1.5×10−6 cm/s), and low (Pe<5.5×10−8 cm/s) permeability.

Structure (SMILES): COc1cc2c(NC3CCS(=O)(=O)CC3)nc(N3CCC(F)(F)CC3)nc2cc1OCCCN1CCCC1 [Compound 1, 4-((2-(4,4-difluoropiperidin-1-yl)-6-methoxy-7-(3-(pyrrolidin-1-yl)propoxy)quinazolin-4-yl)amino)tetrahydro-2H-thiopyran 1,1-dioxide]
- effects in weight change (MTD studies) (C57BL/6 mice; mouse, in vivo, po): not cause any effects in weight change

Structure (SMILES): COc1cc2c(NC3CCOCC3)nc(N3CCC(F)(F)CC3)nc2cc1OCCCN1CCCC1 [Compound 2, 2-(4,4-difluoropiperidin-1-yl)-6-methoxy-7-(3-(pyrrolidin-1-yl)propoxy)-N-(tetrahydro-2H-pyran-4-yl)quinazolin-4-amine]
- expression of TNF [1]: significantly reduced expression
- expression of infliximab marker genes [1]: significantly reduced expression
- expression of pro-inflammatory cytokine and metalloproteinase pathway genes (22-gene signature) [1]: significantly reduced expression
- number of inflammatory response genes with significantly reduced expression [1]: > 85 genes
- Log2FC 1l6 ([1]; treated vs untreated): −4.82
- Log2FC Ccl2 ([1]; treated vs untreated): −2.71
- Log2FC Ccl3 ([1]; treated vs untreated): −7.36
- Log2FC Ccl7 ([1]; treated vs untreated): −2.73
- Log2FC Ccl9 ([1]; treated vs untreated): −1.15
- Log2FC Csf3 ([1]; treated vs untreated): −6.66
- Log2FC Csf3r ([1]; treated vs untreated): −3.19
- Log2FC Cxcl1 ([1]; treated vs untreated): −6.03
- Log2FC Cxcl2 ([1]; treated vs untreated): −8.30
- Log2FC Cxcl3 ([1]; treated vs untreated): −10.19
- Log2FC Cxcl5 ([1]; treated vs untreated): −6.57
- Log2FC Il1a ([1]; treated vs untreated): −6.05
- Log2FC Il1b ([1]; treated vs untreated): −6.17
- Log2FC Il11 ([1]; treated vs untreated): −4.05
- Log2FC Il13ra2 ([1]; treated vs untreated): −2.38
- Log2FC Mmp3 ([1]; treated vs untreated): −4.47
- Log2FC Osm ([1]; treated vs untreated): −4.67
- Log2FC Osmr ([1]; treated vs untreated): −1.24
- Log2FC Ptgs2 ([1]; treated vs untreated): −3.18
- Log2FC Stc1 ([1]; treated vs untreated): −1.89
- Log2FC Tnfrsf11b ([1]; treated vs untreated): −1.66
- expression of genes related to inflammatory response [1]: significantly reduced expression levels
- Tregs (%) (Naïve human CD4 T cells): 20.1%
- increase of the number of Tregs over untreated (Naïve human CD4 T cells): 6.28 fold
- colitis associated damage in the intestine (in words) ([2]; 25 mg/kg PO daily): strong inhibitor of colitis associated damage in the intestine
- Clinical Score ([2]; 25 mg/kg PO daily, day 4): ++
- Colon Length ([2]; 25 mg/kg PO daily, day 4): ++
- Histological Score ([2]; 25 mg/kg PO daily, day 4): ++
- TNBS Efficacy ([2]; 25 mg/kg PO daily, day 4): ++
- histological scores (in words) ([2]; vs vehicle treated controls): positive outcomes

Structure (SMILES): COc1cc2c(NC3CCN(C(C)C)CC3)nc(N3CCC(F)(F)CC3)nc2cc1OCCCN1CCCC1 [Compound 400, 2-(4,4-difluoropiperidin-1-yl)-N-(1-isopropylpiperidin-4-yl)-6-methoxy-7-(3-(pyrrolidin-1-yl)propoxy)quinazolin-4-amine, reference compound]
- expression of genes related to inflammatory response [1]: did not have any effect
- effects in weight change (MTD studies) (C57BL/6 mice; 50 mg/kg daily oral): not cause any effects in weight change
- Tregs (%) (Naïve human CD4 T cells): 4.7%
- increase of the number of Tregs over untreated (Naïve human CD4 T cells): 1.46 fold
- Papp (in vitro; PAMPA permeability Classification, 20 μM donor): 0.055 to 1.5 ×10⁻⁶ cm/s
- Papp (in vitro; Permeability, Pe, 20 μM donor in PBS/MeOH 90:10): 0.178 ×10⁻⁶ cm/s
